Test system: EBTr [NBL-4] cells derived from bovine embryonic trachea
Experiment: cAMP production promoting action in EBTr [NBL-4] cell derived from bovine embryonic trachea
Format: cell-based
Conditions: for EC50: concentration producing 50% of the cAMP amount obtained with 10 μM PGD2 (=100%), 15 minutes with test compound and 0.5 mM 3-isobutyl-1-methylxanthine; for cAMP production promoting action (in words): conclusion drawn from Table 1
Protocol: Experiment [Measurement of cAMP production promoting action in EBTr [NBL-4] cell derived from bovine embryonic trachea]
According to the method of Ito et al. in Br. J. Pharmacol., vol. 99, page 13-14 (1990), the following test was carried out.
That is, EBTr [NBL-4] cells derived from bovine embryonic trachea (produced by Dainippon Pharmaceutical Co.) were inoculated on 24-well plates (6×10^4 cells/well) (manufactured by Sumitomo Bakelite Co.), and cultured on a growth medium (MEM Earle's medium including 10% calf serum, 2mM glutamine and non-essential amino acids) for 48 hours, followed by cultivation on 0.5 ml of a growth medium including the test compound and 0.5 mM 3-isobutyl-1-methylxanthine) for 15 minutes. After the completion of the reaction, the cells were washed with a phosphate buffer (not including Ca++ and Mg++), 0.6 ml of 65% aqueous ethanol solution was added, followed by allowing to stand at 4° C. for an hour, and the resulting cAMP was extracted. After evaporation of the solvent by a centrifugal evaporator, the amount of cAMP was measured by using a cAMP EIA System (manufactured by Amersham Co.).
When an amount of cAMP obtained by adding PGD2 in a concentration of 10 μM was regarded as 100%, a concentration required to produce 50% of the amount of cAMP was measured as EC50.
(note) Compounds 19 and 97 are those prepared in the examples as described above. The test compounds were each used as a form of an ethanol solution, and compared with a vehicle-treated group as a control.

Row | Compound | EC50 | cAMP production promoting action (in words)
1 | CCCCC[C@H](O)/C=C/[C@H]1C(=O)C[C@H](O)[C@@H]1C/C=C\CCCC(=O)O [PGD2, reference compound] | 124 nM | –
2 | O=C(O)COCCSCC1C(Cl)CC(O)C1C#CC(O)C1CCCCC1 (stereo not drawn) [Compound 97, 3-Oxa-6-thia-9β-chloro-13,14-didehydro-16,17,18,19,20-pentanor-15-cyclohexyl-9-deoxy-PGF1α] | 5.13 nM | strong cAMP production promoting action
3 | O=C(O)CCCCSCC1C(Cl)CC(O)C1C#CC(O)C1CCCCC1 (stereo not drawn) [Compound 19, 6-Thia-9-deoxy-9β-chloro-16,17,18,19,20-pentanor-15-cyclohexyl-13,14-didehydro-PGF1α] | 17.3 nM | strong cAMP production promoting action

From patent US6740772B1, “Prostaglandin derivatives” (Taisho Pharmaceutical Co., Ltd., priority 1999, dated 2004)
